Results on 21 compounds are retold here after PubChem BioAssay (NCI).

Values joined by “and” are separate entries in the source; they are usually repeats but may differ in a detail not shown here. Identical values can stand only once.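 Following 48 hours of exposure in 96-well plates, responses at five concentrations were used to interpolate endpoints linearly. The concentration for 50% growth inhibition is given as GI50. TGI marks complete inhibition of growth.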

One assay concerns A498 renal. Description: NCI tumour cell line growth inhibition, 48 h.
As for `C=CCCCC12CCCc3cccc(c31)NC2=O` (configuration not stated), the TGI amounted to 45.6 µM.
`O=C(OCc1ccccc1)OOC(=O)OCc1ccccc1` gave a TGI above 100 µM.
Consider `COc1cc([C@@H]2c3cc4c(cc3C[C@H]3COC(=O)[C@@H]32)OCO4)cc(OC)c1OC`, for which the GI50 is 0.0023 µM; the TGI was 0.00969 µM and 0.0642 µM.
`Cc1ccc(C(=O)Nc2ccc(CP(=O)(O)O)cc2)cc1NC(=O)c1cccc(NC(=O)Nc2cccc(C(=O)Nc3cc(C(=O)Nc4ccc(CP(=O)(O)O)cc4)ccc3C)c2)c1` displayed a TGI above 100 µM.
In turn, `CCOC(=O)c1cnc2[nH]ccn2c1=O` showed a TGI above 10 µM.
The compound `O=C(CCc1ccc(O)cc1)c1c(O)cc(O)cc1OC1OC(CO)C(O)C(O)C1O` (configuration not stated) registered a TGI above 100 µM.
On the same count and under the same terms, the same measure for `CC(C)=CC1C(C(=O)O)C1(C)C` (configuration not stated): above 34.8 µM; for `O=C1C(Br)=Cc2c(Cl)sc(Cl)c21`: 52.1 µM; for `O=[N+]([O-])C(=C(Sc1ccccc1)Sc1ccccc1)C(Cl)=C(Cl)Cl`: 6.94 µM.
For `NCCCC(N)C(=O)O` (configuration not stated), the TGI was above 100 µM.
`CCOC(=O)C1C(=O)CC(O)(c2ccccc2)C(C(=O)OCC)C1c1ccc(OC)cc1` (configuration not stated): the TGI was above 100 µM.
On to `c1ccc(N=c2snc(-c3ccccc3)s2)cc1`, for which the TGI was above 100 µM.
The same measure, in the same setting: the same measure for `COc1cc2c(cc1OC)C(=O)/C(=C/c1cc(C)c(O)c(C)c1)C2`: above 100 µM; for `COC(=O)CCCC(=O)C(=Nc1c(Cl)cccc1Cl)NNc1ccc(Cl)cc1`: 88.6 µM; for `C=CC/C(C(=O)OC)=C(/C(=O)OC)N(CCC)CCC`: above 100 µM.
`N#CC(C#N)=C1CCCS(=O)(=O)c2ccccc21`: the TGI was above 100 µM.

Another assay has as its system DLD-1 colon. The experiment in a line: NCI tumour cell line growth inhibition, 48 h.
Regarding `C=CCCCC12CCCc3cccc(c31)NC2=O` (configuration not stated), the TGI was found to be 42.4 µM.
`Cc1nc2nnc(C)n2c2c1C(=O)Nc1ccccc1N2` registered a TGI above 100 µM.
For `O=C(OCc1ccccc1)OOC(=O)OCc1ccccc1`, the TGI was above 100 µM.
Same read-out and setting: for `Cc1cc2cccc(Cl)c2nc1C(=O)c1ccccc1` the value was above 100 µM; for `COc1cc([C@@H]2c3cc4c(cc3C[C@H]3COC(=O)[C@@H]32)OCO4)cc(OC)c1OC`, above 50 µM; for `CC(=O)Nc1ccc(Cl)c(Cl)c1`, above 100 µM.
In turn, `CC(C)=CC1C(C(=O)O)C1(C)C` (configuration not stated) gave a TGI above 750 µM.
Turning to `c1ccc(N=c2snc(-c3ccccc3)s2)cc1`, the TGI is above 100 µM.
For the compound `OCc1ccccc1C1CSCSC1`, the TGI is above 100 µM.

The subject of the next assay is DMS 114 small cell lung. Description: NCI tumour cell line growth inhibition, 48 h.
`C=CCCCC12CCCc3cccc(c31)NC2=O` (configuration not stated): the TGI was determined as 33 µM.
In the case of `O=C1C(Cl)N(c2ccccc2)C1c1c[nH]c2ccccc12` (configuration not stated), the TGI is above 100 µM.
`Cc1nc2nnc(C)n2c2c1C(=O)Nc1ccccc1N2` registered a TGI above 100 µM.
Compound `O=C(OCc1ccccc1)OOC(=O)OCc1ccccc1` displayed a TGI above 100 µM.
`Cc1cc2cccc(Cl)c2nc1C(=O)c1ccccc1` yielded a TGI above 100 µM.
The compound `COc1cc([C@@H]2c3cc4c(cc3C[C@H]3COC(=O)[C@@H]32)OCO4)cc(OC)c1OC` came in with a TGI of 0.0167 µM.
As for `CC(=O)Nc1ccc(Cl)c(Cl)c1`, the TGI was above 100 µM.
`CC(C)=CC1C(C(=O)O)C1(C)C` (configuration not stated) displayed a TGI above 750 µM.
In turn, `c1ccc(N=c2snc(-c3ccccc3)s2)cc1` came in with a TGI above 100 µM.
For the compound `OCc1ccccc1C1CSCSC1`, the TGI was above 100 µM.

The test system of the next assay is DMS 273 small cell lung. Description: NCI tumour cell line growth inhibition, 48 h.
The compound `Cc1nc2nnc(C)n2c2c1C(=O)Nc1ccccc1N2` returned a TGI above 100 µM.
Turning to `Cc1cc2cccc(Cl)c2nc1C(=O)c1ccccc1`, the TGI was above 100 µM.
Regarding `COc1cc([C@@H]2c3cc4c(cc3C[C@H]3COC(=O)[C@@H]32)OCO4)cc(OC)c1OC`, the TGI is above 4.13 µM.
Turning to `CC(=O)Nc1ccc(Cl)c(Cl)c1`, the TGI is above 100 µM.
On the same count and under the same terms, for `CC(C)=CC1C(C(=O)O)C1(C)C` (configuration not stated) the value was above 750 µM.
Compound `c1ccc(N=c2snc(-c3ccccc3)s2)cc1` had a TGI above 100 µM.
As for `OCc1ccccc1C1CSCSC1`, the TGI was above 100 µM.

The next assay deals with HOP-18 NSCLC. Description: NCI tumour cell line growth inhibition, 48 h.
For the compound `Cc1nc2nnc(C)n2c2c1C(=O)Nc1ccccc1N2`, the TGI was above 100 µM.
For `Cc1cc2cccc(Cl)c2nc1C(=O)c1ccccc1`, the TGI was above 100 µM.
For `COc1cc([C@@H]2c3cc4c(cc3C[C@H]3COC(=O)[C@@H]32)OCO4)cc(OC)c1OC`, the TGI is above 50 µM.
With `CC(C)=CC1C(C(=O)O)C1(C)C` (configuration not stated), the TGI is above 750 µM.
Regarding `c1ccc(N=c2snc(-c3ccccc3)s2)cc1`, the TGI is above 100 µM.

In the next assay the test system is KM20L2 colon. Description: NCI tumour cell line growth inhibition, 48 h.
In turn, `C=CCCCC12CCCc3cccc(c31)NC2=O` (configuration not stated) displayed a TGI of 47 µM.
In turn, `O=C1C(Cl)N(c2ccccc2)C1c1c[nH]c2ccccc12` (configuration not stated) displayed a TGI above 100 µM.
Consider `Cc1nc2nnc(C)n2c2c1C(=O)Nc1ccccc1N2`, for which the TGI was above 100 µM.
Compound `O=C(OCc1ccccc1)OOC(=O)OCc1ccccc1` came in with a TGI above 100 µM.
For the compound `Cc1cc2cccc(Cl)c2nc1C(=O)c1ccccc1`, the TGI is above 100 µM.
On to `CC(=O)Nc1ccc(Cl)c(Cl)c1`, for which the TGI was above 100 µM.
`CC(C)=CC1C(C(=O)O)C1(C)C` (configuration not stated) came in with a TGI above 750 µM.
For `c1ccc(N=c2snc(-c3ccccc3)s2)cc1`, the TGI is above 100 µM.

For another assay, the system named is LXFL 529 NSCLC. Description: NCI tumour cell line growth inhibition, 48 h.
Compound `O=C1C(Cl)N(c2ccccc2)C1c1c[nH]c2ccccc12` (configuration not stated) yielded a TGI above 100 µM.
On to `Cc1nc2nnc(C)n2c2c1C(=O)Nc1ccccc1N2`, for which the TGI was above 100 µM.
Regarding `O=C(OCc1ccccc1)OOC(=O)OCc1ccccc1`, the TGI was above 100 µM.
`Cc1cc2cccc(Cl)c2nc1C(=O)c1ccccc1` registered a TGI above 100 µM.
The same measure, in the same setting: the same measure for `CC(=O)Nc1ccc(Cl)c(Cl)c1`: above 100 µM; for `c1ccc(N=c2snc(-c3ccccc3)s2)cc1`: above 100 µM.
